Earlier results on one compound are cited in patent US10292948B2 (Torrent Pharmaceuticals Limited, priority 2017, dated 2019).

What is called bioavailability is the share of a dose that reaches the circulation, judged against a reference dose that is usually intravenous.

The conditions of data set [1]: pH dependent.

Take `CC[C@@H](c1cccc(O)c1)[C@@H](C)CN(C)C.Cl` [Tapentadol, 3-[(1R,2R)-3-(dimethylamino)-1-ethyl-2-methylpropyl]phenol]: in data set [1], the solubility entry is reported as “highly soluble”. Also, under “after oral dosing”, the “time of maximum serum concentration” value is given as “around 1.25 hours”. In addition, for the setting “oral administration”, the “administered tapentadol metabolized (first-pass metabolism)” value is given as “about 97%” and the bioavailability is reported as 32%. The “time after administration at which absorption occurs” value (oral formulations) is given as “at least 45 minutes”.
